pKi: −log10 of the molar value.
Biological target: T1, human MR (Homo sapiens, UniProt P08235)
T1 construct: The full length human MR gene is cloned from a human kidney or human brain cDNA library; made in house; host or cells: Sf9 insect cells (baculovirus, pAcHLT transfer vector)
T1 sequence (P08235 1-984): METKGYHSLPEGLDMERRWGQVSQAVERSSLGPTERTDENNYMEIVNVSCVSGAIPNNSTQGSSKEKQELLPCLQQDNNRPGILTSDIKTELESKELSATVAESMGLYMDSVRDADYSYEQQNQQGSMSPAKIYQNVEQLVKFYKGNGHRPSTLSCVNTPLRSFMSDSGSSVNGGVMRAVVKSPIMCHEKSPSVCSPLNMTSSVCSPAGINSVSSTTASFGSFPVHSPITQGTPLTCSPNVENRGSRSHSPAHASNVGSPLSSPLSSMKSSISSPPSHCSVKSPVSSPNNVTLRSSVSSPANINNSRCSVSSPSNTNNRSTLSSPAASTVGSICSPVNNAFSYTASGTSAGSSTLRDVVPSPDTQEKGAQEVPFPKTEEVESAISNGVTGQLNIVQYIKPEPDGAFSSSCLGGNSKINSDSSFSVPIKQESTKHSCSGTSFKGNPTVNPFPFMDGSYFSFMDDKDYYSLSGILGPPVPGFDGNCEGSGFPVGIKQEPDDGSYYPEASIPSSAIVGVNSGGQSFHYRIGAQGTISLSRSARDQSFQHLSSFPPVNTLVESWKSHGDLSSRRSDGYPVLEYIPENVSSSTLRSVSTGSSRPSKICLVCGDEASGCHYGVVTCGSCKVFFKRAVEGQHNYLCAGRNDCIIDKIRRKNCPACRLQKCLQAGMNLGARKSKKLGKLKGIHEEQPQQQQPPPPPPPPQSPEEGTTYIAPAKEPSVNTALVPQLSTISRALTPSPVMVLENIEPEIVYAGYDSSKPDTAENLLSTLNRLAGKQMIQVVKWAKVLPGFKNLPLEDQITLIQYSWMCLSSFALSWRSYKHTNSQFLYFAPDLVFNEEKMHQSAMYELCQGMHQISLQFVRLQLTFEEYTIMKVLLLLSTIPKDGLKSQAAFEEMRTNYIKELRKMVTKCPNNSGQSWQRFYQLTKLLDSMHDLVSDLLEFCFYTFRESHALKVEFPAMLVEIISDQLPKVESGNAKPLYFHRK
Assay: Mineralocorticoid Receptor Binding Assay ([3H]-aldosterone displacement)
Conditions: full length human MR expressed in Sf9 cells, 0.5 nM [3H]-aldosterone
Experimental: Mineralocorticoid Receptor Binding Assay:
The full length human MR gene is cloned from a human kidney or human brain cDNA library. Briefly, using synthetic oligonucleotide primers (Eli Lilly and Company, Indianapolis) directed to nucleotides 20-54 and 3700-3666 of the human MR, polymerase chain reaction (PCR) is performed under standard conditions using a human cDNA library. The PCR reaction is performed in a final volume of 50 μl containing about 1 μl of a 50× stock solution of polymerase; about 1 μl of a 50× stock solution of dNTP; about 5 μl of an appropriate PCR buffer; about 1 μl of each primer; about 5 μl of a H. kidney or H. brain cDNA library; and about 36 μl of water. The reaction is allowed to denature for about 30 seconds at 95 degrees Celsius, anneal for about 30 seconds at 55 degrees Celsius, and extend for about 5 minutes at 72 degrees Celsius, the sequence being repeated for a total of about 35 cycles. The desired PCR product (3.68 Kb) is confirmed by gel electrophoresis and subsequently cut from the gel and stored at about −20 degrees Celsius until extraction. To extract the cDNA product from the agarose gel, the QIAEX II Gel Extraction protocol (QIAGEN, Inc.) is employed according to the manufacturer's instructions. Following extraction, the MR cDNA is cloned into an appropriate cloning vector (Zero Blunt TOPO PCR Cloning Kit (Invitrogen, Inc.) and a pAcHLT-baculovirus transfer vector (B.D./Pharminogen), then expressed in SF9 insect cells, essentially according to manufacturer's instructions. Sf9 cells are grown at a scale where gram quantity cell pellets are obtained for subsequent use in the MR binding assay. Harvested cell pellets are lysed by repeated freeze-thaw cycles (about 4) in a suitable lysis buffer then centrifuged at about 1×10^3 G (with the supernatant being saved for future assays).
MR binding assays are performed in a final total volume of about 250 μl containing about 20-25 μg of protein and 0.5 nM of [^3H]-aldosterone plus varying concentrations of test compound or vehicle. The assay binding buffer consists of 30 mM sodium molybdate, 30 mM of TRIS-HCl, 5 mM sodium phosphate, 5 mM sodium pyrophosphate, and about 10% glycerol, pH=7.5.
Briefly, assays are prepared at RT in 96-well Falcon 3072 plates, each well containing 210 μl of binding buffer, 10 μl of [^3H]-aldosterone, 10 μl of test compound/vehicle, and 20 μl of the resuspended receptor protein extract. Incubations are carried out at 4 degrees Celsius with shaking for about 16 hours. 200 μl aliquots of each incubation are filtered onto Millipore HA 0.45 micron 96-well filter plates, pre-moistened with cold 30 mM TRIS-HCl. The filter plates are suctioned dry with vacuum and immediately washed 3× with cold 30 mM TRIS-HCl. The plates are then punched out and the amount of receptor-ligand complex is determined by liquid scintillation counting using 4 ml of Ready Protein Plus™ liquid scintillation cocktail.
IC50 values (defined as the concentration of test compound required to decrease [^3H]-aldosterone binding by 50%) are then determined. Ki values for each respective test compound can then be calculated by application of the Cheng-Prusoff equation as described in Cheng et al., Relationship Between The Inhibition Constant (Ki) and The Concentration of Inhibitor Which Causes 50% Inhibition (IC50) of an Enzymatic Reaction, Biochem. Pharmacol., 22: 3099-31088; (1973).

pKi	SMILES
≥ 6.30	COc1ccc(CN2C(=O)C(c3cc(C)c(O)c(C)c3)(c3cc(C)c(O)c(C)c3)c3ccccc32)cc1 [Example 1, 3,3-Bis-(4-hydroxy-3,5-dimethyl-phenyl)-1-(4-methoxy-benzyl)-1,3-dihydro-indol-2-one]
≥ 6.30	COC(=O)c1ccc(CN2C(=O)C(c3cc(C)c(O)c(C)c3)(c3cc(C)c(O)c(C)c3)c3ccccc32)cc1 [Example 3, 4-[3,3-Bis-(4-hydroxy-3,5-dimethyl-phenyl)-2-oxo-2,3-dihydro-indol-1-ylmethyl]-benzoic acid methyl ester]
≥ 6.00	Cc1cc(C2(c3cc(C)c(O)c(C)c3)C(=O)N(C)c3ccccc32)cc(C)c1O [Example 4, 3,3-Bis-(4-hydroxy-3,5-dimethyl-phenyl)-1-methyl-1,3-dihydro-indol-2-one]
≥ 6.30	CCCN1C(=O)C(c2cc(C)c(O)c(C)c2)(c2cc(C)c(O)c(C)c2)c2ccccc21 [Example 5, 3,3-Bis-(4-hydroxy-3,5-dimethyl-phenyl)-1-propyl-1,3-dihydro-indol-2-one]
≥ 6.30	Cc1cc(C2(c3cc(C)c(O)c(C)c3)C(=O)N(CC3CCCCC3)c3ccccc32)cc(C)c1O [Example 6, 1-Cyclohexylmethyl-3,3-bis-(4-hydroxy-3,5-dimethyl-phenyl)-1,3-dihydro-indol-2-one]
≥ 6.30	Cc1cc(C2(c3cc(C)c(O)c(C)c3)C(=O)N(Cc3cccc(OC(F)(F)F)c3)c3ccccc32)cc(C)c1O [Example 8, 3,3-Bis-(4-hydroxy-3,5-dimethyl-phenyl)-1-(3-trifluoromethoxy-benzyl)-1,3-dihydro-indol-2-one]
≥ 6.30	Cc1cc(C2(c3cc(C)c(O)c(C)c3)C(=O)N(Cc3c(C)noc3C)c3ccccc32)cc(C)c1O [Example 9, 1-(3,5-Dimethyl-isoxazol-4-ylmethyl)-3,3-bis-(4-hydroxy-3,5-dimethyl-phenyl)-1,3-dihydro-indol-2-one]
≥ 6.30	Cc1cc(C2(c3cc(C)c(O)c(C)c3)C(=O)N(Cc3ccccc3Cl)c3ccccc32)cc(C)c1O [Example 11, 1-(2-Chloro-benzyl)-3,3-bis-(4-hydroxy-3,5-dimethyl-phenyl)-1,3-dihydro-indol-2-one]
≥ 6.30	Cc1cc(C2(c3ccc(O)c(C)c3)C(=O)N(Cc3ccccc3)c3ccccc32)ccc1O [Example 12, 1-Benzyl-3,3-bis-(4-hydroxy-3-methyl-phenyl)-1,3-dihydro-indol-2-one]
≥ 6.00	O=C1N(Cc2ccccc2)c2ccccc2C1(c1cc(Cl)c(O)c(Cl)c1)c1cc(Cl)c(O)c(Cl)c1 [Example 14, 1-Benzyl-3,3-bis-(3,5-dichloro-4-hydroxy-phenyl)-1,3-dihydro-indol-2-one]
≥ 6.30	Cc1cc(C2(c3cc(C)c(O)c(C)c3)C(=O)N(Cc3ccccc3)c3ccc(Br)cc32)cc(C)c1O [Example 15, 1-Benzyl-5-bromo-3,3-bis-(4-hydroxy-3,5-dimethyl-phenyl)-1,3-dihydro-indol-2-one]
≥ 6.30	Cc1ccc2c(c1)C(c1cc(C)c(O)c(C)c1)(c1cc(C)c(O)c(C)c1)C(=O)N2Cc1ccccc1 [Example 17, 1-Benzyl-3,3-bis-(4-hydroxy-3,5-dimethyl-phenyl)-5-methyl-1,3-dihydro-indol-2-one]
≥ 6.30	Cc1cc(C2(c3cc(C)c(O)c(C)c3)C(=O)N(Cc3ccccc3Cl)c3ccc(Br)cc32)cc(C)c1O [Example 19, 5-Bromo-1-(2-chloro-benzyl)-3,3-bis-(4-hydroxy-3,5-dimethyl-phenyl)-1,3-dihydro-indol-2-one]
≥ 6.30	Cc1ccccc1CN1C(=O)C(c2cc(C)c(O)c(C)c2)(c2cc(C)c(O)c(C)c2)c2cc(Br)ccc21 [Example 20, 5-Bromo-3,3-bis-(4-hydroxy-3,5-dimethyl-phenyl)-1-(2-methyl-benzyl)-1,3-dihydro-indol-2-one]
≥ 6.30	Cc1ccc2c(c1)C(c1cc(C)c(O)c(C)c1)(c1cc(C)c(O)c(C)c1)C(=O)N2Cc1ccccc1C [Example 21, 3,3-Bis-(4-hydroxy-3,5-dimethyl-phenyl)-5-methyl-1-(2-methyl-benzyl)-1,3-dihydro-indol-2-one]
≥ 6.30	Cc1ccc2c(c1)C(c1cc(C)c(O)c(C)c1)(c1cc(C)c(O)c(C)c1)C(=O)N2Cc1ccccc1Cl [Example 22, 1-(2-Chloro-benzyl)-3,3-bis-(4-hydroxy-3,5-dimethyl-phenyl)-5-methyl-1,3-dihydro-indol-2-one]
≥ 6.30	Cc1ccc2c(c1)C(c1cc(C)c(O)c(C)c1)(c1cc(C)c(O)c(C)c1)C(=O)N2Cc1ccccc1C#N [Example 23, 2-[3,3-Bis-(4-hydroxy-3,5-dimethyl-phenyl)-5-methyl-2-oxo-2,3-dihydro-indol-1-ylmethyl]-benzonitrile]
≥ 6.30	Cc1cc(C2(c3cc(C)c(O)c(C)c3)C(=O)N(Cc3ccccc3Cl)c3c(C)cccc32)cc(C)c1O [Example 24, 1-(2-Chloro-benzyl)-3,3-bis-(4-hydroxy-3,5-dimethyl-phenyl)-7-methyl-1,3-dihydro-indol-2-one]
≥ 6.30	CCc1cccc2c1N(Cc1ccccc1Cl)C(=O)C2(c1cc(C)c(O)c(C)c1)c1cc(C)c(O)c(C)c1 [Example 25, 1-(2-Chloro-benzyl)-7-ethyl-3,3-bis-(4-hydroxy-3,5-dimethyl-phenyl)-1,3-dihydro-indol-2-one]
≥ 6.30	Cc1cc(C2(c3cc(C)c(O)c(C)c3)C(=O)N(Cc3ccccc3Cl)c3cccc(Cl)c32)cc(C)c1O [Example 26, 4-Chloro-1-(2-chloro-benzyl)-3,3-bis-(4-hydroxy-3,5-dimethyl-phenyl)-1,3-dihydro-indol-2-one]
≥ 6.30	Cc1cc(C2(c3cc(C)c(O)c(C)c3)C(=O)N(Cc3ccccc3Cl)c3ccccc32)cc(C)c1N (centres unmarked) [Example 35, 3-(4-Amino-3,5-dimethyl-phenyl)-1-(2-chloro-benzyl)-3-(4-hydroxy-3,5-dimethyl-phenyl)-1,3-dihydro-indol-2-one]
≥ 6.30	Cc1cc(C2(c3ccc(O)cc3)C(=O)N(Cc3ccccc3Cl)c3ccccc32)cc(C)c1O (centres unmarked) [Example 36, 1-(2-Chloro-benzyl)-3-(4-hydroxy-3,5-dimethyl-phenyl)-3-(4-hydroxy-phenyl)-1,3-dihydro-indol-2-one]
≥ 6.30	Cc1cc(C2(c3cc(C)c(O)c(C)c3)C(=O)N(Cc3ccc(F)cc3F)c3ccccc32)cc(C)c1O [Example 43, 1-(2,4-Difluoro-benzyl)-3,3-bis-(4-hydroxy-3,5-dimethyl-phenyl)-1,3-dihydro-indol-2-one]
